Where a SMILES comes first, the peptide text is derived from it.
Key:
[1] = target: T1, human GLP-1 receptor (Homo sapiens, UniProt P43220); assay: GLP-1 receptor potency assay (cAMP ALPHASCREEN, HEK293 cells stably expressing GLP-1 R); type: cell-based; conditions: cAMP response, HEK293 cells expressing human GLP-1 R
T1 construct: expressed in transfected cells
From the text: One useful in vitro assay for measuring GLP-1 and GLP-2 receptor activity is quantitation of cAMP, i.e. 3′-5′-cyclic adenosine monophosphate, which is a second messenger essential in many biological processes, and one of the most ubiquitous mechanisms for regulating cellular functions.
The cDNA encoding the human glucagon-like peptide 1 receptor (GLP-1 R) (primary accession number P43220) was cloned from the cDNA BC112126 (MGC:138331/IMAGE:8327594). The DNA encoding the GLP-1-R was amplified by PCR using primers encoding terminal restriction sites for subcloning. The 5′-end primers additionally encoded a near Kozak consensus sequence to ensure efficient translation. […] The PCR products encoding the GLP-1-R were subcloned into a mammalian expression vector containing a neomycin (G418) resistance marker. The mammalian expression vectors encoding the GLP-1-R were transfected into HEK293 cells by a standard calcium phosphate transfection method. 48 hours post-transfection, cells were seeded for limited dilution cloning and selected with 1 mg/ml G418 in the culture medium. Following 3 weeks in G418 selection clones were picked and tested in a functional GLP-1 receptor potency assay as described below.
The cAMP ALPHASCREEN® assay from Perkin Elmer was used to quantitate the cAMP response to activation of the GLP1 and GLP2 receptor, respectively. […] Data from test compounds eliciting an increase in the intracellular level of cAMP were normalized relative to the positive and negative control (vehicle) to calculate the EC50 and maximal response from the concentration response curve.

[2] = Chemical stability (RP-HPLC normalized purity after incubation at 40° C.); type: physicochemical; conditions: 14-day incubation, 0.2 mg/ml, normalized purity (area-%); for pH 6 normalized stability: pH 6, 40° C.; for pH 7 normalized stability: pH 7, 40° C.
Method in brief: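 Peptide at 0.2 mg/ml final in water adjusted to pH 6, 7, 7.5 or 9, incubated at 40° C for 14 days. Purity measured as main-peak area-% by C18 RP-HPLC (acetonitrile/TFA/water gradient, UV 220 nm) and normalized to T=0 set at 100 for each pH.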

T1 sequence (P43220 24-463): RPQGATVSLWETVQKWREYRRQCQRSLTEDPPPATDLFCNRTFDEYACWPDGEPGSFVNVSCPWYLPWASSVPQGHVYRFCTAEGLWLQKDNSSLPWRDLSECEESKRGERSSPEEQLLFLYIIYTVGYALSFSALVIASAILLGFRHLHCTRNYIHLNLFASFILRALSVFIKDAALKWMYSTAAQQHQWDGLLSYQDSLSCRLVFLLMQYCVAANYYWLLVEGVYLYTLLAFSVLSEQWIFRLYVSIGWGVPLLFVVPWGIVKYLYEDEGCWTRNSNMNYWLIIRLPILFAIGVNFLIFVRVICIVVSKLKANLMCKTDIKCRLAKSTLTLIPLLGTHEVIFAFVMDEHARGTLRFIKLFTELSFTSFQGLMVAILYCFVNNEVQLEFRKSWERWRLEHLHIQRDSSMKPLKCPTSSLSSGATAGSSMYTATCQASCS

Compound	EC50 [1] [nM]	pH 6 normalized stability [2]	pH 7 normalized stability [2]
CC[C@H](C)[C@H](NC(=O)[C@H](Cc1ccccc1)NC(=O)[C@H](CC(=O)O)NC(=O)[C@H](CCCNC(=N)N)NC(=O)[C@H](C)NC(=O)[C@H](C)NC(=O)[C@H](CCC(=O)O)NC(=O)[C@H](CCCCNC(=O)CC[C@H](NC(=O)CCCCCCCCCCCCCCCCC(=O)O)C(=O)O)NC(=O)[C@H](CC(=O)O)NC(=O)[C@H](CC(C)C)NC(=O)[C@@H](NC(=O)[C@@H](NC(=O)[C@H](C)NC(=O)[C@H](CC(C)C)NC(=O)[C@H](CCC(=O)O)NC(=O)[C@H](CO)NC(=O)[C@@H](NC(=O)[C@H](Cc1ccccc1)NC(=O)[C@H](CO)NC(=O)CNC(=O)[C@H](CCC(=O)O)NC(=O)C(C)(C)NC(=O)[C@@H](N)Cc1c[nH]cn1)[C@@H](C)O)[C@@H](C)O)[C@@H](C)CC)C(=O)N[C@@H](C)C(=O)N[C@@H](Cc1c[nH]c2ccccc12)C(=O)N[C@@H](CC(C)C)C(=O)N[C@H](C(=O)N[C@@H](CCC(=O)O)C(=O)N[C@@H](Cc1c[nH]cn1)C(=O)N[C@@H](CCCCN)C(=O)N[C@H](C(=O)N[C@H](C(=O)N[C@@H](CC(=O)O)C(=O)O)[C@@H](C)O)[C@@H](C)CC)[C@@H](C)CC [Compound 2] (HELM PEPTIDE1{H.[Aib].E.G.S.F.T.S.E.L.A.T.I.L.D.K.E.A.A.R.D.F.I.A.W.L.I.E.H.K.I.T.D}|PEPTIDE2{[O=C(O)CCCCCCCCCCCCCCCCC(=O)[*:2]].[gGlu]}$PEPTIDE1,PEPTIDE2,16:R3-2:R2$$$V2.0)	0.13	A (>90% normalised stability)	A (>90% normalised stability)
CC[C@H](C)[C@H](NC(=O)[C@H](Cc1ccccc1)NC(=O)[C@H](CC(=O)O)NC(=O)[C@H](CCCNC(=N)N)NC(=O)[C@H](C)NC(=O)[C@H](C)NC(=O)[C@H](CCC(N)=O)NC(=O)[C@H](CCCCNC(=O)COCCOCCNC(=O)[C@H](CCCCN)NC(=O)[C@H](CCC(=O)O)NC(=O)[C@H](CCCCN)NC(=O)CC[C@H](NC(=O)CCCCCCCCCCCCCCCCC(=O)O)C(=O)O)NC(=O)[C@H](CC(=O)O)NC(=O)[C@H](CC(C)C)NC(=O)[C@@H](NC(=O)[C@@H](NC(=O)[C@H](C)NC(=O)[C@H](CC(C)C)NC(=O)[C@H](CCC(=O)O)NC(=O)[C@H](CO)NC(=O)[C@H](CO)NC(=O)[C@H](Cc1ccccc1)NC(=O)[C@@H](NC(=O)CNC(=O)[C@H](CCC(=O)O)NC(=O)C(C)(C)NC(=O)[C@@H](N)Cc1c[nH]cn1)[C@@H](C)O)[C@@H](C)O)[C@@H](C)CC)C(=O)N[C@@H](C)C(=O)N[C@@H](Cc1c[nH]c2ccccc12)C(=O)N[C@@H](CC(C)C)C(=O)N[C@H](C(=O)N[C@@H](CCC(=O)O)C(=O)N[C@@H](Cc1c[nH]cn1)C(=O)N[C@@H](CCCCN)C(=O)N[C@H](C(=O)N[C@H](C(=O)N[C@@H](CC(=O)O)C(=O)O)[C@@H](C)O)[C@@H](C)CC)[C@@H](C)CC [Compound 49] (HELM PEPTIDE1{H.[Aib].E.G.T.F.S.S.E.L.A.T.I.L.D.K.Q.A.A.R.D.F.I.A.W.L.I.E.H.K.I.T.D}|PEPTIDE2{[O=C(O)CCCCCCCCCCCCCCCCC(=O)[*:2]].[gGlu].K.E.K.[O=C(COCCOCCN[*:1])[*:2]]}$PEPTIDE1,PEPTIDE2,16:R3-6:R2$$$V2.0)	0.27	–	–
CC[C@H](C)[C@H](NC(=O)[C@H](CC(C)C)NC(=O)[C@H](Cc1c[nH]c2ccccc12)NC(=O)[C@H](C)NC(=O)[C@@H](NC(=O)[C@H](Cc1ccccc1)NC(=O)[C@H](CC(=O)O)NC(=O)[C@H](CCCNC(=N)N)NC(=O)[C@H](C)NC(=O)[C@H](C)NC(=O)[C@H](CC(C)C)NC(=O)[C@H](CCCCNC(=O)CC[C@H](NC(=O)CCCCCCCCCCCCCCCCC(=O)O)C(=O)O)NC(=O)[C@H](CC(=O)O)NC(=O)[C@H](CC(C)C)NC(=O)[C@@H](NC(=O)[C@@H](NC(=O)[C@H](C)NC(=O)[C@H](CC(C)C)NC(=O)[C@H](CCC(=O)O)NC(=O)[C@H](CO)NC(=O)[C@@H](NC(=O)[C@H](Cc1ccccc1)NC(=O)[C@@H](NC(=O)CNC(=O)[C@H](CCC(=O)O)NC(=O)C(C)(C)NC(=O)[C@@H](N)Cc1c[nH]cn1)[C@@H](C)O)[C@@H](C)O)[C@@H](C)O)[C@@H](C)CC)[C@@H](C)CC)C(=O)N[C@@H](C)C(=O)N[C@@H](Cc1c[nH]cn1)C(=O)N[C@@H](CCCCN)C(=O)N[C@H](C(=O)N[C@H](C(=O)N[C@@H](CC(=O)O)C(=O)O)[C@@H](C)O)[C@@H](C)CC [Compound 15] (HELM PEPTIDE1{H.[Aib].E.G.T.F.T.S.E.L.A.T.I.L.D.K.L.A.A.R.D.F.I.A.W.L.I.A.H.K.I.T.D}|PEPTIDE2{[O=C(O)CCCCCCCCCCCCCCCCC(=O)[*:2]].[gGlu]}$PEPTIDE1,PEPTIDE2,16:R3-2:R2$$$V2.0)	0.25	–	–
CC[C@H](C)[C@H](NC(=O)[C@H](CC(C)C)NC(=O)[C@H](Cc1c[nH]c2ccccc12)NC(=O)[C@H](C)NC(=O)[C@@H](NC(=O)[C@H](Cc1ccccc1)NC(=O)[C@H](CC(=O)O)NC(=O)[C@H](CCCNC(=N)N)NC(=O)[C@H](C)NC(=O)[C@H](C)NC(=O)[C@H](CCC(N)=O)NC(=O)[C@H](CCCCNC(=O)CC[C@H](NC(=O)CCCCCCCCCCCCCCCCC(=O)O)C(=O)O)NC(=O)[C@H](CC(=O)O)NC(=O)[C@H](CC(C)C)NC(=O)[C@@H](NC(=O)[C@@H](NC(=O)[C@H](C)NC(=O)[C@H](CC(C)C)NC(=O)[C@H](CCC(=O)O)NC(=O)[C@H](CO)NC(=O)[C@H](CO)NC(=O)[C@H](Cc1ccccc1)NC(=O)[C@@H](NC(=O)CNC(=O)[C@H](CCC(=O)O)NC(=O)C(C)(C)NC(=O)[C@@H](N)Cc1c[nH]cn1)[C@@H](C)O)[C@@H](C)O)[C@@H](C)CC)[C@@H](C)CC)C(=O)N[C@@H](C)C(=O)N[C@@H](Cc1c[nH]cn1)C(=O)N[C@@H](CCCCN)C(=O)N[C@H](C(=O)N[C@H](C(=O)N[C@@H](CC(=O)O)C(=O)O)[C@@H](C)O)[C@@H](C)CC [Compound 21] (HELM PEPTIDE1{H.[Aib].E.G.T.F.S.S.E.L.A.T.I.L.D.K.Q.A.A.R.D.F.I.A.W.L.I.A.H.K.I.T.D}|PEPTIDE2{[O=C(O)CCCCCCCCCCCCCCCCC(=O)[*:2]].[gGlu]}$PEPTIDE1,PEPTIDE2,16:R3-2:R2$$$V2.0)	1.8	–	–
CC[C@H](C)[C@H](NC(=O)[C@H](Cc1ccccc1)NC(=O)[C@H](CC(=O)O)NC(=O)[C@H](CCCNC(=N)N)NC(=O)[C@H](C)NC(=O)[C@H](C)NC(=O)[C@H](CC(C)C)NC(=O)[C@H](CCCCNC(=O)CC[C@H](NC(=O)CCCCCCCCCCCCCCCCC(=O)O)C(=O)O)NC(=O)[C@H](CC(=O)O)NC(=O)[C@H](CC(C)C)NC(=O)[C@@H](NC(=O)[C@@H](NC(=O)[C@H](C)NC(=O)[C@H](CC(C)C)NC(=O)[C@H](CCC(=O)O)NC(=O)[C@H](CO)NC(=O)[C@@H](NC(=O)[C@H](Cc1ccccc1)NC(=O)[C@H](CO)NC(=O)CNC(=O)[C@H](CCC(=O)O)NC(=O)C(C)(C)NC(=O)[C@@H](N)Cc1c[nH]cn1)[C@@H](C)O)[C@@H](C)O)[C@@H](C)CC)C(=O)N[C@@H](C)C(=O)N[C@@H](Cc1c[nH]c2ccccc12)C(=O)N[C@@H](CC(C)C)C(=O)N[C@H](C(=O)N[C@@H](CCC(=O)O)C(=O)N[C@@H](Cc1c[nH]cn1)C(=O)N[C@@H](CCCCN)C(=O)N[C@H](C(=O)N[C@H](C(=O)N[C@@H](CC(=O)O)C(=O)O)[C@@H](C)O)[C@@H](C)CC)[C@@H](C)CC [Compound 11] (HELM PEPTIDE1{H.[Aib].E.G.S.F.T.S.E.L.A.T.I.L.D.K.L.A.A.R.D.F.I.A.W.L.I.E.H.K.I.T.D}|PEPTIDE2{[O=C(O)CCCCCCCCCCCCCCCCC(=O)[*:2]].[gGlu]}$PEPTIDE1,PEPTIDE2,16:R3-2:R2$$$V2.0)	0.32	–	A (>90% normalised stability)
CC[C@H](C)[C@H](NC(=O)[C@H](Cc1ccccc1)NC(=O)[C@H](CC(=O)O)NC(=O)[C@H](CCCNC(=N)N)NC(=O)[C@H](C)NC(=O)[C@H](C)NC(=O)[C@H](CCC(N)=O)NC(=O)[C@H](CCCCNC(=O)CC[C@H](NC(=O)CCCCCCCCCCCCCCCCC(=O)O)C(=O)O)NC(=O)[C@H](CC(=O)O)NC(=O)[C@H](CC(C)C)NC(=O)[C@@H](NC(=O)[C@@H](NC(=O)[C@H](C)NC(=O)[C@H](CC(C)C)NC(=O)[C@H](CCC(=O)O)NC(=O)[C@H](CO)NC(=O)[C@@H](NC(=O)[C@H](Cc1ccccc1)NC(=O)[C@H](CO)NC(=O)CNC(=O)[C@H](CCC(=O)O)NC(=O)C(C)(C)NC(=O)[C@@H](N)Cc1c[nH]cn1)[C@@H](C)O)[C@@H](C)O)[C@@H](C)CC)C(=O)N[C@@H](C)C(=O)N[C@@H](Cc1c[nH]c2ccccc12)C(=O)N[C@@H](CC(C)C)C(=O)N[C@H](C(=O)N[C@@H](CCCCN)C(=O)N[C@@H](Cc1c[nH]cn1)C(=O)N[C@@H](CCCCN)C(=O)N[C@H](C(=O)N[C@H](C(=O)N[C@@H](CC(=O)O)C(=O)O)[C@@H](C)O)[C@@H](C)CC)[C@@H](C)CC [Compound 29] (HELM PEPTIDE1{H.[Aib].E.G.S.F.T.S.E.L.A.T.I.L.D.K.Q.A.A.R.D.F.I.A.W.L.I.K.H.K.I.T.D}|PEPTIDE2{[O=C(O)CCCCCCCCCCCCCCCCC(=O)[*:2]].[gGlu]}$PEPTIDE1,PEPTIDE2,16:R3-2:R2$$$V2.0)	0.31	A (>90% normalised stability)	B (>80% stability)
